Publication PMC7827406, “Structure–Activity Relationship (SAR) Study of Spautin-1 to Entail the Discovery of Novel NEK4 Inhibitors” (International Journal of Molecular Sciences, 2021)
Read-outs that look alike come from different tables or passages of the source.

Key:
Test in all cases: biochemical
Parameters in all cases: Eurofins KinaseProfiler full panel at Km ATP, residual kinase activity (%) relative to DMSO
PDGFRα(V561D)(h) = molecular target: T1, PDGFRα(V561D)(h) (Homo sapiens, UniProt P16234, V561D)
T1 construct: gene PDGFRA
Procedure, shortened: (§1)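 Compounds screened at 10 µM in radiometric kinase activity assays at Km ATP, reported as remaining kinase activity (%). A KINOMEscan competition-binding screen at 10 µM measured DNA-tagged kinase retained on immobilized active-site ligand by qPCR.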

ULK2(h) = molecular target: T2, ULK2(h) (Homo sapiens, UniProt Q8IYT8)
T2 sequence (Q8IYT8 1-1036): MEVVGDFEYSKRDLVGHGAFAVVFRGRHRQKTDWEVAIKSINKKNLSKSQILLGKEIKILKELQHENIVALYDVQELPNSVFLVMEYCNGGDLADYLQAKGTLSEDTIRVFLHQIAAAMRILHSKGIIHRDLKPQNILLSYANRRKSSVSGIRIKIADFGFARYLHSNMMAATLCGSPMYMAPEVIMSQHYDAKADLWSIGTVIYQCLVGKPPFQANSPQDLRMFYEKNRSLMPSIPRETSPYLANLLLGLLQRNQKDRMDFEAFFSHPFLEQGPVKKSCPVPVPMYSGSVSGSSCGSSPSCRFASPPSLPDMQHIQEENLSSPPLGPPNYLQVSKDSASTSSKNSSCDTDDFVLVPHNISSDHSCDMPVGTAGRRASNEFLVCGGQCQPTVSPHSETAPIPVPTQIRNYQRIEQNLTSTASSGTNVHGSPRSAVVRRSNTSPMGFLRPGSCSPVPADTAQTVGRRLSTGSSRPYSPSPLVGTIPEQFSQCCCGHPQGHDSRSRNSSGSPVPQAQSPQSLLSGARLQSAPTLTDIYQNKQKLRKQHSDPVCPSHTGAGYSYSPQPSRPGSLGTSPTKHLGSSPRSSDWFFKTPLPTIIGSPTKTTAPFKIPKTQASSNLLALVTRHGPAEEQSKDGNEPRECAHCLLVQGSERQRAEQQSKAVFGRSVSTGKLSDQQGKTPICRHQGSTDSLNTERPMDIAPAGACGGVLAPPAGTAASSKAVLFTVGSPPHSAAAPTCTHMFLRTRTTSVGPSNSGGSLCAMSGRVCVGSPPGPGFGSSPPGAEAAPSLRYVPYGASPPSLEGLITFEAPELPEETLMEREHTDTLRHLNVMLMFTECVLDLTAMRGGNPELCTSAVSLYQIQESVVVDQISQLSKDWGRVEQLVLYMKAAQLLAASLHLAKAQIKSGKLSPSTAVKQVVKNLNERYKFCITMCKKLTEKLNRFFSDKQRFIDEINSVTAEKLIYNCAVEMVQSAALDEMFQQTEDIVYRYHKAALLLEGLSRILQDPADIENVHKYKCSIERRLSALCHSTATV
Procedure, shortened: as §1

ROCK-II(r) = molecular target: T3, ROCK-II(r) (Rattus norvegicus, UniProt Q62868)
T3 construct: gene Rock2
Procedure, shortened: as §1

BRK(h) = molecular target: T4, BRK(h) (Homo sapiens, UniProt Q13882)
T4 construct: gene PTK6
Procedure, shortened: as §1

BrSK1(h) = molecular target: T5, BrSK1(h) (Homo sapiens, UniProt Q8TDC3)
T5 sequence (Q8TDC3 1-778): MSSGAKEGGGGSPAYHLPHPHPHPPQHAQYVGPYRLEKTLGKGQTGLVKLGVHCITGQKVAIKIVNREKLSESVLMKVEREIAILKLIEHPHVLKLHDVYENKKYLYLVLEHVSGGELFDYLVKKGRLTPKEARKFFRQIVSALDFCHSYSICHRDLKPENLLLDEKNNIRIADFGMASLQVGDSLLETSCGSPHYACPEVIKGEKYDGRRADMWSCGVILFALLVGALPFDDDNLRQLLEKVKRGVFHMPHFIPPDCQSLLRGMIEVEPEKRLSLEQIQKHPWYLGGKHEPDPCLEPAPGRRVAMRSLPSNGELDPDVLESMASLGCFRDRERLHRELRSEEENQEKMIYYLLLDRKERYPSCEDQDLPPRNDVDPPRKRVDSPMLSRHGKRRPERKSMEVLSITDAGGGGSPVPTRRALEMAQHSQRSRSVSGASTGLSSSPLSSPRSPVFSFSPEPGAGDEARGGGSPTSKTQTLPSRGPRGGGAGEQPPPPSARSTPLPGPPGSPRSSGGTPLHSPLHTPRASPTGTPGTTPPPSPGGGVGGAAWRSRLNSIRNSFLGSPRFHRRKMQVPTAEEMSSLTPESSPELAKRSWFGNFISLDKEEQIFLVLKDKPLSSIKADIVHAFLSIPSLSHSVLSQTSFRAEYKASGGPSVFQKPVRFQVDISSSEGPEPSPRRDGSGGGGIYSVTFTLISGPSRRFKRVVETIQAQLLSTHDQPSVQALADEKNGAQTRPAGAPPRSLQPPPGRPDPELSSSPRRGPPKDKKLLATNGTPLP
Procedure, shortened: as §1

TrkA(h) = molecular target: T6, TrkA(h) (Homo sapiens, UniProt P04629)
T6 construct: gene NTRK1
Procedure, shortened: as §1

SIK2(h) = SIK2(h) (Homo sapiens, UniProt Q9H0K1)
Procedure, shortened: as §1

Hck(h) activated = Hck(h) activated (Homo sapiens, UniProt P08631)
Procedure, shortened: as §1

[1] = read-out: Residual activity (%) Spautin-1 5aa
[2] = read-out: Residual activity (%) 5as
[3] = read-out: Residual activity (%) 5at
[4] = read-out: Residual activity (%) 5ay

T6 sequence (P04629 whole entry): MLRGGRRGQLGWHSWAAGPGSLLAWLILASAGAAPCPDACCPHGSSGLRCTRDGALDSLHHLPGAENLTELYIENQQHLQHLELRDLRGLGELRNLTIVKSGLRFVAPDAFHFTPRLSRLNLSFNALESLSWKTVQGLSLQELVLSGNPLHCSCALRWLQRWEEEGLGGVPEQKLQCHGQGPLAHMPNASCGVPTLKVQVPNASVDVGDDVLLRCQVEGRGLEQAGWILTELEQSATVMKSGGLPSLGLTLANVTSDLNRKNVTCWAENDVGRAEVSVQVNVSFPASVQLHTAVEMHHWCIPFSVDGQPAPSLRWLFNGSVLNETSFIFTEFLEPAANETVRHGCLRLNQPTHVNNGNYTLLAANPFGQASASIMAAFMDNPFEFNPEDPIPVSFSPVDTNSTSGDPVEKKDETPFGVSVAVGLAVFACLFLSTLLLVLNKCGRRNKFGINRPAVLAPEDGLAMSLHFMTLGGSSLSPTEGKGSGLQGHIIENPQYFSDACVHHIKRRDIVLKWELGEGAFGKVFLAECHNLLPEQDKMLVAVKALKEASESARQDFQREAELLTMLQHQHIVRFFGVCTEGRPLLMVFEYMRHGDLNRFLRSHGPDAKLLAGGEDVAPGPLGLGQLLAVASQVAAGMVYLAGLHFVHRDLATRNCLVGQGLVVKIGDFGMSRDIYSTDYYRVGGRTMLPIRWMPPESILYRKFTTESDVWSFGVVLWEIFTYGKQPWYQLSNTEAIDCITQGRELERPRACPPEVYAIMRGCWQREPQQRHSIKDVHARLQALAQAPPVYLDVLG
T3 sequence (Q62868 whole entry): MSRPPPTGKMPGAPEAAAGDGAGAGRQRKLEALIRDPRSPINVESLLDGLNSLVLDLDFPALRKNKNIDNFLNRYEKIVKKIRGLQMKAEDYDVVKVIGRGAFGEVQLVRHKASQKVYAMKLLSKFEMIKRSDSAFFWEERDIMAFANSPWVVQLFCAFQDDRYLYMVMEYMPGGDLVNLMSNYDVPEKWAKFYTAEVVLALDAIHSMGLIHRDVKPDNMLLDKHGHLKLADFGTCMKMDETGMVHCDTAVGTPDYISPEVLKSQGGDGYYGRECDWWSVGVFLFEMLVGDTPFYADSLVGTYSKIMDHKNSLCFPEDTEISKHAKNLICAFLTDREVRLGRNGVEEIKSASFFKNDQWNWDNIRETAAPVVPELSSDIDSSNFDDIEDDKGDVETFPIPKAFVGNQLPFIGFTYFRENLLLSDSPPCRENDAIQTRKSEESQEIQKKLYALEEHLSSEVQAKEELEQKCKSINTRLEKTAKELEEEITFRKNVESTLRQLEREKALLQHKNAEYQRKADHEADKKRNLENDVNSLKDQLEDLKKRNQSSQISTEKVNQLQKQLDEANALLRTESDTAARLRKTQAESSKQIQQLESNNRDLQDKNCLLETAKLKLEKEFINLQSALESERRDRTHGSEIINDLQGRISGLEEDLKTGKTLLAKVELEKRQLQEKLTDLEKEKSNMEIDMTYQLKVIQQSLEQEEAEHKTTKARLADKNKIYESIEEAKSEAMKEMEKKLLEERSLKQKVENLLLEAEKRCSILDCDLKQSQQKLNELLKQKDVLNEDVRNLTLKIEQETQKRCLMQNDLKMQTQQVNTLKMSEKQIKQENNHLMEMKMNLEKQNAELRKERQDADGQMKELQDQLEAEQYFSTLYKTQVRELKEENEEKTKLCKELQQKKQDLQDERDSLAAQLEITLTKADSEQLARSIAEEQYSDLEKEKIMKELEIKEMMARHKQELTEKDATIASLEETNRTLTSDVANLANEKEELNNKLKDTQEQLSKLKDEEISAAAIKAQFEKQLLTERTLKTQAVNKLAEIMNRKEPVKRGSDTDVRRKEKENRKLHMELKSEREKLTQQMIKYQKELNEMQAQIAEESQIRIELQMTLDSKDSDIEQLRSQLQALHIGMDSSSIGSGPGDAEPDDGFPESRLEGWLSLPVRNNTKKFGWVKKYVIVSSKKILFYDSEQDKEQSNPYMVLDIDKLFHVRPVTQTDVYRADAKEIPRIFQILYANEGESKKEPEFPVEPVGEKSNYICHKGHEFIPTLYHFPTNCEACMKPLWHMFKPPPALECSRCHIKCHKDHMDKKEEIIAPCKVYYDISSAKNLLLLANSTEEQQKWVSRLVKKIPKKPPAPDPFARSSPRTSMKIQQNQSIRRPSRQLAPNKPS
T4 sequence (Q13882 whole entry): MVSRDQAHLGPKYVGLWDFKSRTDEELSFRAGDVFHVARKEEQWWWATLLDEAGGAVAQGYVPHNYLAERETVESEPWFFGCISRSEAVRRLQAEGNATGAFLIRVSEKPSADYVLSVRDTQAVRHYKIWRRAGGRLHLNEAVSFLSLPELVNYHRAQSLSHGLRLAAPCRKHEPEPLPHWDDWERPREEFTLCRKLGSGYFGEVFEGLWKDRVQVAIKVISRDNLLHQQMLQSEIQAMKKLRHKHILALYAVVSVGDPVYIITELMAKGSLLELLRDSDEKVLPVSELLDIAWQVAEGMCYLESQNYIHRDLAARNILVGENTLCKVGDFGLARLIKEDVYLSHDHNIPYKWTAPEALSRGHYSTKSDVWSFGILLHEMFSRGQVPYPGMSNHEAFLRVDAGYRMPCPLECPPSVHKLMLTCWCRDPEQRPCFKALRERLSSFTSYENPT
Hck(h) activated, sequence (P08631 whole entry): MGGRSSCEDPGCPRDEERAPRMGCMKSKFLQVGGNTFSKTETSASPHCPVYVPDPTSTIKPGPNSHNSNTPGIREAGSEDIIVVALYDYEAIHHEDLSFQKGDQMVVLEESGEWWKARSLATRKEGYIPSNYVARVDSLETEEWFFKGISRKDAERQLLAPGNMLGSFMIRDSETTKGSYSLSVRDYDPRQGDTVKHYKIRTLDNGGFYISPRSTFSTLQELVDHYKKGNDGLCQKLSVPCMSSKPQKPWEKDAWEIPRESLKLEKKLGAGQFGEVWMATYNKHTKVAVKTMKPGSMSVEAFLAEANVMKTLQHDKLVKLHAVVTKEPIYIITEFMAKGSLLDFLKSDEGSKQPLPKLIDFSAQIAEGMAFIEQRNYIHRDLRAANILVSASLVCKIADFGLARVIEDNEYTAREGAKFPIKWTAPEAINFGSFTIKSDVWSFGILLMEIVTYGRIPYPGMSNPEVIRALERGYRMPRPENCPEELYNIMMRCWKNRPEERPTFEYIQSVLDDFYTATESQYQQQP
T1 sequence (P16234 whole entry V561D): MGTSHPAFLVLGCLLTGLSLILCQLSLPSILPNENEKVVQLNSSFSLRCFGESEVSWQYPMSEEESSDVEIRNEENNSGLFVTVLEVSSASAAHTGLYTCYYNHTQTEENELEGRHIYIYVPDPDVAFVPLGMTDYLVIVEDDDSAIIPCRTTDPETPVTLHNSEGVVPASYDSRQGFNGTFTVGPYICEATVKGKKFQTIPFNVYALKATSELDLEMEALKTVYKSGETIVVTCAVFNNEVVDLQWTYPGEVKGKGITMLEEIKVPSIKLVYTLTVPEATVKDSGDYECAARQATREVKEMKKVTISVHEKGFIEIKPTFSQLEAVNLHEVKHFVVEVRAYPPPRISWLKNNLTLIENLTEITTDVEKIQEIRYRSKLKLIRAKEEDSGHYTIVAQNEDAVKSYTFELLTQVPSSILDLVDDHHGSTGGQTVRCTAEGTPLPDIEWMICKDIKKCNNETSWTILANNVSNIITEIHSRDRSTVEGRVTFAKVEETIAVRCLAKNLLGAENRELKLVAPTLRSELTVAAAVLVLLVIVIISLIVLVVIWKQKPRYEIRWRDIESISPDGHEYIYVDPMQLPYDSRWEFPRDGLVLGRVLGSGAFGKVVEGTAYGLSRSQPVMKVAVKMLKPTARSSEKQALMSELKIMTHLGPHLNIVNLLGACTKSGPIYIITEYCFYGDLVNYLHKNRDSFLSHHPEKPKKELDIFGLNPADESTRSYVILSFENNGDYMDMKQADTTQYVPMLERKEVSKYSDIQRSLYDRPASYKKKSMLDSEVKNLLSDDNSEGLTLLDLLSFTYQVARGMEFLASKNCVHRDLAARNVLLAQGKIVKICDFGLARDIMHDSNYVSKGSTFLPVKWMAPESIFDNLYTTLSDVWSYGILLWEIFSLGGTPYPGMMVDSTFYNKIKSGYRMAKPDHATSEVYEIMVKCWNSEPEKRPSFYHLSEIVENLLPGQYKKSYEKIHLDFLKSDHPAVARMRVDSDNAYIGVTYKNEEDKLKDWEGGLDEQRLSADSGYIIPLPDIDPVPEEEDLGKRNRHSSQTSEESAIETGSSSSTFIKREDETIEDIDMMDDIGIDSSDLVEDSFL

Question: `Fc1ccc(CNc2ncnc3ccc(F)cc23)cc1` [5aa, 6-Fluoro-N-(4-fluorobenzyl)-4-Quinazolinamine] was tested. Which remaining activity at 10 µM (PDGFRα(V561D)(h); [1]) did it give?
Answer: 86%

Question: And the remaining activity at 10 µM (ULK2(h); [1])?
Answer: 101%

Question: And the remaining activity at 10 µM (ROCK-II(r); [1])?
Answer: 90%

Question: What about the remaining activity at 10 µM (BRK(h); [1]) of the same compound?
Answer: 105%

Question: What about the remaining activity at 10 µM (BrSK1(h); [1]) of the same compound?
Answer: 85%

Question: What about the remaining activity at 10 µM (TrkA(h); [1]) of the same compound?
Answer: 65%

Question: And the remaining activity at 10 µM (SIK2(h); [1])?
Answer: 91%

Question: And the remaining activity at 10 µM (Hck(h) activated; [1])?
Answer: 85%

Question: With `Fc1ccc(CCNc2ncnc3ccc(F)cc23)cc1` [5as, 6-Fluoro-N-[2-(4-Fluorophenyl)Ethyl]-4-Quinazolinamine] as the compound, how does the remaining activity at 10 µM (PDGFRα(V561D)(h); [2]) read?
Answer: 92%

Question: And the remaining activity at 10 µM (ULK2(h); [2])?
Answer: 93%

Question: And the remaining activity at 10 µM (ROCK-II(r); [2])?
Answer: 105%

Question: What about the remaining activity at 10 µM (BRK(h); [2]) of the same compound?
Answer: 87%

Question: And the remaining activity at 10 µM (BrSK1(h); [2])?
Answer: 89%

Question: And the remaining activity at 10 µM (TrkA(h); [2])?
Answer: 87%

Question: And the remaining activity at 10 µM (SIK2(h); [2])?
Answer: 97%

Question: And the remaining activity at 10 µM (Hck(h) activated; [2])?
Answer: 85%

Question: `Fc1ccc2ncnc(NCCc3ccc(Cl)cc3)c2c1` [5at, N-[2-(4-Chlorophenyl)Ethyl]-6-Fluoro-4-Quinazolinamine] was tested. Which remaining activity at 10 µM (PDGFRα(V561D)(h); [3]) did it give?
Answer: 90%

Question: What about the remaining activity at 10 µM (ULK2(h); [3]) of the same compound?
Answer: 94%

Question: What about the remaining activity at 10 µM (ROCK-II(r); [3]) of the same compound?
Answer: 103%

Question: And the remaining activity at 10 µM (BRK(h); [3])?
Answer: 96%

Question: And the remaining activity at 10 µM (BrSK1(h); [3])?
Answer: 112%

Question: What about the remaining activity at 10 µM (TrkA(h); [3]) of the same compound?
Answer: 60%

Question: What about the remaining activity at 10 µM (SIK2(h); [3]) of the same compound?
Answer: 84%

Question: What about the remaining activity at 10 µM (Hck(h) activated; [3]) of the same compound?
Answer: 108%

Question: For `COc1ccc2ncnc(Nc3cccc(F)c3)c2c1` [5ay, N-(3-Fluorophenyl)-6-Methoxy-4-Quinazolinamine], which remaining activity at 10 µM (PDGFRα(V561D)(h); [4]) is on record?
Answer: 98%

Question: What about the remaining activity at 10 µM (ULK2(h); [4]) of the same compound?
Answer: 97%

Question: And the remaining activity at 10 µM (ROCK-II(r); [4])?
Answer: 98%

Question: What about the remaining activity at 10 µM (BRK(h); [4]) of the same compound?
Answer: 71%

Question: What about the remaining activity at 10 µM (BrSK1(h); [4]) of the same compound?
Answer: 30%

Question: What about the remaining activity at 10 µM (TrkA(h); [4]) of the same compound?
Answer: 70%

Question: What about the remaining activity at 10 µM (SIK2(h); [4]) of the same compound?
Answer: 65%

Question: What about the remaining activity at 10 µM (Hck(h) activated; [4]) of the same compound?
Answer: 46%
